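Method: 48-hour compound exposure of cells in 96-well plates, five concentrations, linear interpolation of endpoints. GI50 = concentration required for 50% inhibition of growth.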 Active and inactive are the calls of the source. Rule as the data show it: active = GI50 up to about 1.1 µM and inactive = higher.
Legend:
Assay in all cases: NCI tumour cell line growth inhibition, 48 h
A498 = test system: A498
PC-3 = test system: PC-3
NCI-H522 = test system: NCI-H522
HL-60 = test system: HL-60
UO-31 = test system: UO-31
TK-10 = test system: TK-10
NCI-H226 = test system: NCI-H226
U-251 = test system: U-251
SK-MEL-2 = test system: SK-MEL-2
MDA-MB-231 = test system: MDA-MB-231
A549 = test system: A549
SF-268 = test system: SF-268
786-0 = test system: 786-0
MCF7 = test system: MCF7
NCI/ADR-RES = test system: NCI/ADR-RES
SNB-19 = test system: SNB-19
SK-MEL-5 = test system: SK-MEL-5
SK-OV-3 = test system: SK-OV-3
RXF 393 = test system: RXF 393

Measured: GI50

CC(C)CC1[C@@H](OCc2ccccc2)COS(=O)(=O)N1Cc1ccccc1 (some centres undefined)
inactive: A498 > 100 µM | PC-3 65.5 µM | NCI-H522 24.4 µM | HL-60 46.2 µM | UO-31 27.2 µM | TK-10 > 100 µM | NCI-H226 86.7 µM | U-251 > 100 µM | SK-MEL-2 > 100 µM | MDA-MB-231 > 100 µM | A549 67.6 µM | SF-268 6.64 µM | 786-0 > 100 µM | MCF7 91.8 µM | NCI/ADR-RES 52.6 µM | SNB-19 48.1 µM | SK-MEL-5 83.2 µM | SK-OV-3 > 100 µM

CCCCCCCCCCCCCCCCCc1nc(Cl)nc(Cl)c1Cl
inactive: RXF 393 > 100 µM | PC-3 38.1 µM | NCI-H522 > 100 µM | HL-60 > 100 µM | UO-31 > 100 µM | TK-10 > 100 µM | NCI-H226 15.6 µM | U-251 > 100 µM | MDA-MB-231 > 100 µM | A549 > 100 µM | SF-268 > 100 µM | 786-0 > 100 µM | MCF7 > 100 µM | NCI/ADR-RES > 100 µM | SNB-19 > 100 µM | SK-MEL-5 17.3 µM | SK-OV-3 > 100 µM

CC(C)(CO)N1C(=O)c2ccccc2C1(O)c1ccc(Cl)cc1 (centres undefined)
inactive: RXF 393 39.9 µM | PC-3 44.3 µM | NCI-H522 > 100 µM | HL-60 > 100 µM | UO-31 63.2 µM | TK-10 > 100 µM | NCI-H226 > 100 µM | U-251 > 100 µM | SK-MEL-2 37.8 µM | MDA-MB-231 > 100 µM | A549 > 100 µM | SF-268 > 100 µM | 786-0 > 100 µM | MCF7 > 100 µM | NCI/ADR-RES > 100 µM | SNB-19 > 100 µM | SK-MEL-5 > 100 µM | SK-OV-3 > 100 µM

C/C(=C\CO)CC/C=C(\C)CNc1ccc([N+](=O)[O-])cc1
inactive: RXF 393 > 100 µM | PC-3 18 µM | NCI-H522 18 µM | HL-60 19.6 µM | UO-31 7.98 µM | TK-10 7.67 µM | NCI-H226 96.6 µM | U-251 23.7 µM | SK-MEL-2 20.4 µM | MDA-MB-231 26.2 µM | A549 34.2 µM | SF-268 63.5 µM | 786-0 > 100 µM | MCF7 40.6 µM | NCI/ADR-RES 22 µM | SNB-19 40.3 µM | SK-MEL-5 12 µM | SK-OV-3 > 100 µM

CC(=O)C(C(C)=O)[C@H]1OC(C)(C)O[C@H]1[C@H]1COC(C)(C)O1
inactive: A498 > 100 µM | RXF 393 36.2 µM | PC-3 24.5 µM | NCI-H522 33.8 µM | UO-31 49.8 µM | TK-10 > 100 µM | U-251 24.9 µM | SK-MEL-2 22.6 µM | MDA-MB-231 28.6 µM | A549 42.6 µM | SF-268 63.8 µM | 786-0 51.3 µM | MCF7 35.6 µM | NCI/ADR-RES 28.6 µM | SNB-19 41.6 µM | SK-MEL-5 29.1 µM | SK-OV-3 29.2 µM

CCCCC(=O)/C=c1/cc(C)[nH]c2cccc3cnn1c32
inactive: A498 > 100 µM | PC-3 49.1 µM | NCI-H522 > 100 µM | HL-60 > 100 µM | UO-31 > 100 µM | TK-10 > 100 µM | NCI-H226 > 100 µM | U-251 > 100 µM | SK-MEL-2 > 100 µM | MDA-MB-231 > 100 µM | A549 > 100 µM | SF-268 > 100 µM | 786-0 > 100 µM | MCF7 > 100 µM | NCI/ADR-RES > 100 µM | SNB-19 > 100 µM | SK-MEL-5 > 100 µM | SK-OV-3 > 100 µM

N#CC(C(=O)O)C(c1c(Cl)cccc1Cl)C(C#N)C(=O)O (centres undefined)
inactive: A498 > 100 µM | PC-3 > 100 µM | NCI-H522 > 100 µM | HL-60 > 100 µM | UO-31 > 100 µM | TK-10 > 100 µM | NCI-H226 > 100 µM | U-251 > 100 µM | SK-MEL-2 > 100 µM | MDA-MB-231 > 100 µM | A549 > 100 µM | SF-268 > 100 µM | 786-0 > 100 µM | MCF7 > 100 µM | NCI/ADR-RES > 100 µM | SNB-19 > 100 µM | SK-MEL-5 > 100 µM | SK-OV-3 > 100 µM

COCCOCN(C(=O)C1=CCC2(CC1)OCCO2)c1ccccc1I
inactive: A498 > 50 µM | PC-3 > 50 µM | UO-31 > 50 µM | TK-10 > 50 µM | NCI-H226 > 50 µM | U-251 > 50 µM | SK-MEL-2 > 50 µM | MDA-MB-231 > 50 µM | A549 > 50 µM | 786-0 > 50 µM | MCF7 > 50 µM | NCI/ADR-RES > 50 µM | SNB-19 > 50 µM | SK-MEL-5 > 50 µM | SK-OV-3 > 50 µM

— ChEMBL document CHEMBL1201862, “PubChem BioAssay data set” (2004)
